In paper PMC10740956, “A Multitarget Approach against Neuroinflammation: Alkyl Substituted Coumarins as Inhibitors of Enzymes Involved in Neurodegeneration” (Antioxidants, 2023):
Where “and” joins values, the source holds several entries; their conditions need not be identical. Equal entries are not always repeated. Entries after “also recorded” stand apart in the source; their conditions may differ. Where two headings read alike, the source gives them in different places.

How the values were obtained:
[1] = test system: Interleukin-6 secretion from rat astrocytes pre-stimulated with LPS; assay: IL-6 secretion by ELISA in LPS pre-stimulated astrocytes; format: cell-based; conditions: 24 h, compared to LPS alone
Method: (§1) Cells were seeded (8 × 10^3/well) and were left to adhere for 24 h in 96-well plates (Falcon®, Corning Incorporated, NY, USA). The medium was removed, incubating the cell monolayer in the presence of increasing concentrations of DEP, AAZ, and test compounds (0–150 µM) for 24–72 h. In a second set of experiments, cells were pre-incubated in the presence of 0.1 µg/mL LPS (lipopolysaccharide from E. coli, purchased from Merck, Darmstadt, Germany) for 20 h and further exposed to DEP, AAZ, and test compounds in the same experimental conditions.
The amounts (pg/mL) of interleukin-6 (IL-6) were analyzed in cell supernatants using an ELISA kit (Enzo Life Sciences Inc., Lausen, Switzerland) following the manufacturer’s instructions. Absorbance was read at 450 nm and cytokine concentration was determined. Data obtained were normalized on MTT optical densities.

hCA I = hCA I (Homo sapiens, UniProt P00915); assay: stopped flow CO2 hydrase assay, hCA I; format: biochemical; conditions: mean of 3 different assays
hMAO-B = target: T1, hMAO-B (Homo sapiens, UniProt P27338); assay: hMAO-B inhibition, recombinant enzyme, kynuramine substrate, fluorescence; format: biochemical; conditions: for SI (selectivity index for hMAO-B over hMAO-A): IC50 hMAO-A/IC50 hMAO-B; for IC50: mean ± SD of triplicate determinations
T1 construct: purchased Sigma-Aldrich
T1 sequence (P27338 1-520): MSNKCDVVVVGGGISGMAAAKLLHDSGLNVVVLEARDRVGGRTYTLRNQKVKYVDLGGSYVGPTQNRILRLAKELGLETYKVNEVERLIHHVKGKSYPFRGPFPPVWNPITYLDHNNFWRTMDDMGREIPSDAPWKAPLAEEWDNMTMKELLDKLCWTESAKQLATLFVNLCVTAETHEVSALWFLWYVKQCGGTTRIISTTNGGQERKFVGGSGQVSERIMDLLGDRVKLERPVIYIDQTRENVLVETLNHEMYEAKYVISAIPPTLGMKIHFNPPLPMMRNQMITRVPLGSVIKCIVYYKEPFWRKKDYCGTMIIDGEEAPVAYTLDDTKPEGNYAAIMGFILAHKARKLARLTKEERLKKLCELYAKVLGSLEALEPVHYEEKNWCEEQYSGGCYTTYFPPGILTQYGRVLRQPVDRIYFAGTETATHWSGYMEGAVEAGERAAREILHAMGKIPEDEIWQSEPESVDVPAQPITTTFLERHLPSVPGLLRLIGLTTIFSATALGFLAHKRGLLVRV

hCA XII = hCA XII (Homo sapiens, UniProt O43570); assay: stopped flow CO2 hydrase assay, hCA XII; format: biochemical
hCA IX = hCA IX (Homo sapiens, UniProt Q16790); assay: stopped flow CO2 hydrase assay, hCA IX; format: biochemical; conditions: mean of 3 different assays
hCA II = hCA II (Homo sapiens, UniProt P00918); assay: stopped flow CO2 hydrase assay, hCA II; format: biochemical; conditions: mean of 3 different assays
BuChE (equine serum) = target: T2, BuChE (equine serum) (Equus caballus, UniProt P81908); assay: biochemical; format: biochemical; conditions: for IC50: mean ± SD of triplicate determinations
T2 construct: from tissue; host or cells: equine serum

hMAO-A = target: T3, hMAO-A (Homo sapiens, UniProt P21397); assay: hMAO-A inhibition, recombinant enzyme, kynuramine substrate, fluorescence; format: biochemical; conditions: mean ± SD of triplicate determinations
T3 construct: purchased Sigma-Aldrich
T3 sequence (P21397 1-527): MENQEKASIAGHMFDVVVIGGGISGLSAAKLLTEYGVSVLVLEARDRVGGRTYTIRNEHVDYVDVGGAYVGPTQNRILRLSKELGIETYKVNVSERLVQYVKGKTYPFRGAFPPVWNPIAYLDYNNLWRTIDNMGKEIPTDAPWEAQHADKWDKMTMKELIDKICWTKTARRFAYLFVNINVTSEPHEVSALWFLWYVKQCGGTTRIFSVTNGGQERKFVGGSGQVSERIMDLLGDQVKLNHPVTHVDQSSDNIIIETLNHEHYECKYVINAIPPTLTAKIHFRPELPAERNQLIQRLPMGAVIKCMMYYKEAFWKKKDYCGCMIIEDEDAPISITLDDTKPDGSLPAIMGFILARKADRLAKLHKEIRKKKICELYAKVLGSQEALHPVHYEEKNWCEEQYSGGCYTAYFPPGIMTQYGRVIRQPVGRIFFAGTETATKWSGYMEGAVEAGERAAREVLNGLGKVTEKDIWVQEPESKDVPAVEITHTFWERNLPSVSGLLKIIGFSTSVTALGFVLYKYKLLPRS

CTX/TNA2 rat astrocytes = assay: Cell metabolic activity assay (MTT), non-inflammatory conditions; format: cell-based; conditions: 0-150 µM, 24-72 h
AChE (electric eel) = target: T4, AChE (electric eel) (Electrophorus electricus, UniProt O42275); assay: biochemical; conditions: for IC50: mean ± SD of triplicate determinations
T4 construct: from tissue

hCA VII = hCA VII (Homo sapiens, UniProt P43166); assay: stopped flow CO2 hydrase assay, hCA VII; format: biochemical; conditions: mean of 3 different assays
[2] = test system: CTX/TNA2 rat astrocytes pre-stimulated with LPS; assay: Cell metabolic activity assay (MTT), LPS pre-stimulated astrocytes; format: cell-based; conditions: pre-stimulated with 0.1 µg/mL LPS 20 h, then compounds 24 and 72 h
[3] = test system: H2O2 generation in rat astrocytes pre-stimulated with LPS; assay: Hydrogen peroxide measurement in supernatants of LPS pre-stimulated astrocytes; format: cell-based; conditions: 24 h
Method: as §1
At 24 h, cell supernatants were taken from the cultures used for the MTT assay. The quantitative determination of H2O2 released in supernatants was performed by means of a H2O2 colorimetric kit (cat. no. ADI-907-015, Enzo Life Sciences, Inc., Farmingdale, NY, USA). Then, 50 µL of supernatant/well was used and 100 µL of color reagent was added in each well. Next, wells were mixed and afterwards incubated for 30 min at r.t. The OD was measured following the manufacturer’s instructions.

T2 sequence (P81908 whole entry): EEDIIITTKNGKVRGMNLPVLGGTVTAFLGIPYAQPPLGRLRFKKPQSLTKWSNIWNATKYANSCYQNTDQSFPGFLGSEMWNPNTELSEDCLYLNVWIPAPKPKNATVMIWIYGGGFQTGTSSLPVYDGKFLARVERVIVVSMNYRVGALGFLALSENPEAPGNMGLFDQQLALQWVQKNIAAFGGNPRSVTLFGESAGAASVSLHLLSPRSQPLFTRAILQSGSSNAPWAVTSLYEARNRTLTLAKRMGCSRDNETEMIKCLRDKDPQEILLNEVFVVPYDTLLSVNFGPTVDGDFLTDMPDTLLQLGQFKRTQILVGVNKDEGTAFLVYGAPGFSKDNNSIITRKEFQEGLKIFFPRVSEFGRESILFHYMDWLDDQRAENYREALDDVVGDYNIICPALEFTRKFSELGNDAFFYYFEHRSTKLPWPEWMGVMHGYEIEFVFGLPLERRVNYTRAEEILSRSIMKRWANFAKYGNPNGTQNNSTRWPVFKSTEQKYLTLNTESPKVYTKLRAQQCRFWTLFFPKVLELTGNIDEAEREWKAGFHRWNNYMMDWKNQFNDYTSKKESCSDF
T4 sequence (O42275 24-633): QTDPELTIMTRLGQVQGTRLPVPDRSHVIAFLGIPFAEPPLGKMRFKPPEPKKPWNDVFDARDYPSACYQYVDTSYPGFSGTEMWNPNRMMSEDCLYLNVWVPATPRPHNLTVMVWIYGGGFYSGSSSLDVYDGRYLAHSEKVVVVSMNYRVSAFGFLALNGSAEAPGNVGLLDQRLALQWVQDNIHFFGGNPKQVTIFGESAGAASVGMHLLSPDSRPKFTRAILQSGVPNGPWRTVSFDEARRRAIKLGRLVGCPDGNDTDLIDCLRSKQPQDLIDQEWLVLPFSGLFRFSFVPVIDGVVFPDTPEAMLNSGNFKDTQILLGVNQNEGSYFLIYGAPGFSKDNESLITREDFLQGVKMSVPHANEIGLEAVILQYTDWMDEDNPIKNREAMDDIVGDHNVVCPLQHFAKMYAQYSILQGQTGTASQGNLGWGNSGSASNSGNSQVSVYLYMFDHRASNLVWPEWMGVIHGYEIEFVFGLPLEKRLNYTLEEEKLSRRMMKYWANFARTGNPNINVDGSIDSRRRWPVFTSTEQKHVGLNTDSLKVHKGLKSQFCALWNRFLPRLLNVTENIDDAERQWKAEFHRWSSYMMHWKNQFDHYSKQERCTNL
Sequence of hCA VII (P43166 whole entry): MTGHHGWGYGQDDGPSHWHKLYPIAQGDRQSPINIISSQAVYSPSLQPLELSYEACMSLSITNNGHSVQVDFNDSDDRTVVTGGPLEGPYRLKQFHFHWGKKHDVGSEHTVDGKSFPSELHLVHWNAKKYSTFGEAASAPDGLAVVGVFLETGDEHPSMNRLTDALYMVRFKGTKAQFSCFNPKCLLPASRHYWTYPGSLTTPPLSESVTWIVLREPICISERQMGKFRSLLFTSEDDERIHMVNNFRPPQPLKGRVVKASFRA
Sequence of hCA I (P00915 whole entry): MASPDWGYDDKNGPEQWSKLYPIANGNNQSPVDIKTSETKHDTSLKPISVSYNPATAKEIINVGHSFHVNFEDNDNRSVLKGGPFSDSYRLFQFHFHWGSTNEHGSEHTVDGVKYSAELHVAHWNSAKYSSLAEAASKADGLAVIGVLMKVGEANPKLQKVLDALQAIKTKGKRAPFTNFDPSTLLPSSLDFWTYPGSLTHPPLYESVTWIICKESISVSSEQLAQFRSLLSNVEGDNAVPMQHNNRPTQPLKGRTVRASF
Sequence of hCA XII (O43570 25-354): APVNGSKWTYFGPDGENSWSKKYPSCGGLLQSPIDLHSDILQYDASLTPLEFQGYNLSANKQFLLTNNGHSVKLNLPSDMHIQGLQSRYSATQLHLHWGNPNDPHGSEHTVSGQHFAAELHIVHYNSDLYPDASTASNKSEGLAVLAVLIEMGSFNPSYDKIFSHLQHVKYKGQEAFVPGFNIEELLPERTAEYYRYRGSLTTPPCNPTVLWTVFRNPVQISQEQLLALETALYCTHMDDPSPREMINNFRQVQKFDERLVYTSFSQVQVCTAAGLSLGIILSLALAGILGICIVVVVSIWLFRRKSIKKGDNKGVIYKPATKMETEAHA

| SMILES | IL-6 secretion [1] | Ki (hCA I) [µM] | SI (selectivity index for hMAO-B over hMAO-A) (hMAO-B) | IC50 (hMAO-B) | Ki (hCA XII; mean of 3 different assays) [µM] | Ki (hCA IX) [µM] | Ki (hCA II) [µM] | IC50 (BuChE (equine serum)) [µM] | IC50 (hMAO-A) | cell metabolic activity (MTT), biocompatibility (CTX/TNA2 rat astrocytes) | IC50 (AChE (electric eel)) [µM] | Ki (hCA VII) [µM] | cell metabolic activity (MTT) versus LPS only control [2] | further results |
| --- | --- | --- | --- | --- | --- | --- | --- | --- | --- | --- | --- | --- | --- | --- |
| CC(=O)Nc1nnc(S(N)(=O)=O)s1 [AAZ, acetazolamide, reference compound] | the highest concentrations of AAZ are capable of decreasing IL-6 secretion in a significant manner |  |  |  |  |  |  |  |  |  |  |  |  |  |
| C#CCCCOc1cc(=O)oc2ccccc12 [Compound 1, 4-(Pent-4-yn-1-yloxy)-2H-chromen-2-one] |  | 6.26 | <0.51 | > 100 µM | 0.0048 | 0.0172 | > 10 | 33 ± 1 | > 10 µM and 51.2 µM | good biocompatibility, with a cell metabolic activity significantly decreased only after 48 h and at the highest concentration tested (150 µM) | > 100 | 0.0598 |  |  |
| C#CCCCCOc1cc(=O)oc2ccccc12 [Compound 2, 4-(Hex-5-yn-1-yloxy)-2H-chromen-2-one] |  | > 10 | 0.42 | > 10 µM and 25.9 µM | 0.0048 | 0.009 | > 10 | 21 ± 1 | > 10 µM and 10.8 µM | good biocompatibility, with a cell metabolic activity significantly decreased only after 48 h and at the highest concentration tested (150 µM) | > 100 | 0.0469 | able to counteract the LPS-induced increase in cell metabolic activity | BuChE mode of inhibition (BuChE (equine serum); Cornish-Bowden plots): mixed inhibition mechanism; Kib BuChE (inhibitor binding the ES complex) (BuChE (equine serum); Cornish-Bowden plots): 25 ± 3 µM; Ki (BuChE (equine serum); Cornish-Bowden plots, read-out: Kia BuChE (inhibitor binding the free enzyme) (converted)): 13 µM |
| C#CCOc1ccc2oc(=O)ccc2c1 [Compound 3, 6-(Prop-2-ynyloxy)-2H-chromen-2-one] |  |  |  | > 10 µM and 65.4 µM |  |  |  | > 100 | > 10 µM and 40.2 µM | well tolerated up to 48 h and display a good biocompatibility at the longest exposure time (72 h) | > 100 | 0.0617 | able to counteract the LPS-induced increase in cell metabolic activity |  |
| CC#CCOc1ccc2oc(=O)ccc2c1 [Compound 4, 6-(But-2-yn-1-yloxy)-2H-chromen-2-one] |  | > 10 | 4.6 | > 10 µM and 12.1 µM | 0.0043 | 0.0242 | > 10 | > 100 | > 10 µM and 55.7 µM | well tolerated up to 48 h and display a good biocompatibility at the longest exposure time (72 h) | > 100 | 0.0633 |  | H2O2 generation ([3]; 10 µM): restoring it to the untreated control levels |
| C#CCOc1ccc2ccc(=O)oc2c1 [Compound 5, 7-(Prop-2-ynyloxy)-2H-chromen-2-one] | had an effect on IL-6 release | > 10 |  | 5.79 ± 0.26 µM | 0.73 |  | > 10 | > 100 |  | cell metabolic activity significantly decreases at all the concentrations tested at 48 h | > 100 | 0.0519 |  | H2O2 generation ([3]; 0.01 µM): restoring it to the untreated control levels |
| CC#CCOc1ccc2ccc(=O)oc2c1 [Compound 6, 7-(But-2-yn-1-yloxy)-2H-chromen-2-one] |  | > 10 | 85.3 | 0.25 ± 0.017 µM | 0.0068 | 0.0093 | > 10 | > 100 | 21.3 ± 0.77 µM | cell metabolic activity significantly decreases at all the concentrations tested at 48 h | > 100 | 0.0682 |  | H2O2 generation ([3]; 150 µM): restoring it to the untreated control levels |
| CCC#CCOc1ccc2ccc(=O)oc2c1 [Compound 7, 7-(Pent-2-yn-1-yloxy)-2H-chromen-2-one] |  | > 10 |  | 0.008 ± 0.00062 µM |  | 0.013 | > 10 | 59 ± 1 | 11.2 ± 0.39 µM |  |  | 0.0635 |  | H2O2 generation ([3]; 0.01 µM): restoring it to the untreated control levels; also recorded: strong reduction in H2O2 release; Ki (hCA XII): 0.0068 µM; inhibition at 100 µM (AChE (electric eel); read-out: inhibition of AChE at 100 µM, 100 µM): 50% |
| C#CCCCOc1ccc2ccc(=O)oc2c1 [Compound 8, 7-(Pent-4-yn-1-yloxy)-2H-chromen-2-one] |  | > 10 |  | 0.51 ± 0.0099 µM | 0.0065 | 0.0266 | > 10 | > 100 | 5.7 ± 0.21 µM |  | > 100 | 0.0693 | able to counteract the LPS-induced increase in cell metabolic activity |  |
| C#CCN(C)C(C)Cc1ccccc1 (centres unmarked) [DEP, deprenyl, reference compound] | increases the amount of IL-6 at the highest concentration tested |  |  |  |  |  |  |  |  |  |  |  |  |  |
